Source: patent US5508437A, “Analogs of tyrosine sulfate or tyrosine phosphate containing peptides” (Hoffmann-La Roche Inc., priority 1993, dated 1996)
Where two headings read alike, the source gives them in different places. Starred links: 1 amine or outer side, 2 acyl side, 3 side chain; linkers in the order of their positions; H or OH if unused. Positions of bridges follow the written chain, without caps; N, C: chain ends. Non-standard residues stand in square brackets, D forms with d. Residues, ends and D or L forms follow the SMILES beside them. ξ: configuration not given here. *: point of attachment. Phe(4-tetrazol-5-yl) = N[C@@H](Cc1ccc(-c2nnn[nH]2)cc1)C(=O)O; Propanoyl(3-(4-HOOCCH2-Ph)) = O=C(O)Cc1ccc(CCC(=O)*)cc1; X15 = O=C([C@@H](Cc1ccc(-c2nn[nH]n2)cc1)N[*:1])[*:2]; X6 = O=C([C@H](Cc1ccc(Cc2nnn[nH]2)cc1)N[*:1])[*:2]; X13 = O=C(O)C(F)(F)c1ccc(CC(N[*:1])C(=O)[*:2])cc1; X3 = CCOC(=O)Cc1ccc(C[C@@H](N[*:1])C(=O)[*:2])cc1; X7 = O=C(C(Cc1ccc(-c2nn[nH]n2)cc1)N[*:1])[*:2]; X8 = O=C(C(Cc1ccc(Cc2nn[nH]n2)cc1)N[*:1])[*:2]; X12 = O=C(O)Cc1cccc(CC(N[*:1])C(=O)[*:2])c1; X1 = O=C(O)Cc1ccc(CC(N[*:1])C(=O)[*:2])cc1; X14 = O=C(O)c1cccc(CC(N[*:1])C(=O)[*:2])c1; ξPhe(4-COOH) = NC(Cc1ccc(C(=O)O)cc1)C(=O)O; X10 = O=C(CCc1ccc(-c2nn[nH]n2)cc1)*; X16 = O=C(CCc1ccc(-c2nnn[nH]2)cc1)*; X2 = O=C(CCc1ccc(Cc2nnn[nH]2)cc1)*; NMeF = CN[C@@H](Cc1ccccc1)C(=O)O; Nle = CCCC[C@H](N)C(=O)O

Experiments:
[1] = target: T1, rat pancreas (3H-CCK-8-(SO3 H) receptor binding) (Rattus norvegicus, UniProt P30551); experiment: In vitro receptor binding assay, 3H-CCK-8-(SO3H), rat pancreas homogenate
T1 construct: pancreas approximately 0.100 mg protein in 1 mL final volume; from tissue; host or cells: rat pancreas membrane homogenate
T1 sequence (P30551 1-444): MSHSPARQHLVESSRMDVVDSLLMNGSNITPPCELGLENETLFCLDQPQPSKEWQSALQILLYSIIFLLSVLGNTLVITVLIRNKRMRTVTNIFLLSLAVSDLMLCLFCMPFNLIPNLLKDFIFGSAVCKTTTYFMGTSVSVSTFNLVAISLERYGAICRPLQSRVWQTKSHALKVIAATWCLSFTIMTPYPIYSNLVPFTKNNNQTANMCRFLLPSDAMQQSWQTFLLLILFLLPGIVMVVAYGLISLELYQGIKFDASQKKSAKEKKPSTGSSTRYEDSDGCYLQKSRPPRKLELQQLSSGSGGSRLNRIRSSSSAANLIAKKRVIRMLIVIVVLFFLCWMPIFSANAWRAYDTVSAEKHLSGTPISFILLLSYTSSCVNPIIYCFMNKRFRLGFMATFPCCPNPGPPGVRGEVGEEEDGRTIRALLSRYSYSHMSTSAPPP
Method: (§1) Frozen bovine striatum (approx. 5 g) or fresh rat pancreas (approx. 5 g) cleaned of fat and extraneous tissue were homogenized in HEPES buffer #1 (10 mM HEPES+130 mM NaCl+5 mM MgCl2, pH 7.4) using 35 parts buffer per 1 part tissue on a wet weight/volume basis (approx. 175 mL). The tissue was homogenized 2×for approx. 15 sec. at 0° C. using a Polytron homogenizer at a setting of 6. The tissue was isolated by centrifugation at 48,000× g for 10 min at 0° C. The resulting tissue pellet was resuspended in HEPES buffer #2 (10 mM HEPES+130 mM NaCl+5 mM MgCl2 +1 mg/L phenylmethanasulfonyl fluoride (PMSF)+200 mg/L Bacitracin): 1 part striatal tissue (original wet weight) per 80 parts buffer and 1 part pancreas tissue (original wet weight) per 500 to 1000 parts buffer.
(§2) Incubation was initiated by combining various concentrations of native CCK-8 or peptides of the invention with ^3 H-CCK-8-(SO3 H) (final conc.=0.15 nM) and tissue homogenate (striatum approximately 0.26 mg protein in 2 mL final volume; pancreas approximately 0.100 mg protein in 1 mL final volume). Samples were incubated for 30 min at 25° C. and the incubation terminated by pouring the mixture onto a pre-wetted Whatman GF/B filter on a Sandbeck Vacuum Filtration Manifold. The incubation tubes were washed with 2×3 mL of ice-cold HEPES Buffer #2 and the wash filtered through the GF/B filter. The filter was air dried for 10 min and then placed in a scintillation vial with 12 mL of DuPont/NEN Aquasol scintillation cocktail. The vials were shaken overnight and then counted using a liquid scintillation spectrometer. Non-specific binding was determined in the presence of 1 micromolar native CCK-8 and subtracted from all samples to determine specific binding. The concentration of peptide necessary to inhibit 50% of total specific H-CCK-8-(SO3 H) binding (IC50 value) was determined by log-probit analysis.

[2] = target: T2, Bovine Striatum (3H-CCK-8-(SO3 H) receptor binding) (Bos taurus, UniProt P79266); experiment: In vitro receptor binding assay, 3H-CCK-8-(SO3H), bovine striatum homogenate
T2 construct: tissue homogenate (striatum approximately 0.26 mg protein in 2 mL final volume); from tissue; host or cells: bovine striatum membrane homogenate
T2 sequence (P79266 1-454): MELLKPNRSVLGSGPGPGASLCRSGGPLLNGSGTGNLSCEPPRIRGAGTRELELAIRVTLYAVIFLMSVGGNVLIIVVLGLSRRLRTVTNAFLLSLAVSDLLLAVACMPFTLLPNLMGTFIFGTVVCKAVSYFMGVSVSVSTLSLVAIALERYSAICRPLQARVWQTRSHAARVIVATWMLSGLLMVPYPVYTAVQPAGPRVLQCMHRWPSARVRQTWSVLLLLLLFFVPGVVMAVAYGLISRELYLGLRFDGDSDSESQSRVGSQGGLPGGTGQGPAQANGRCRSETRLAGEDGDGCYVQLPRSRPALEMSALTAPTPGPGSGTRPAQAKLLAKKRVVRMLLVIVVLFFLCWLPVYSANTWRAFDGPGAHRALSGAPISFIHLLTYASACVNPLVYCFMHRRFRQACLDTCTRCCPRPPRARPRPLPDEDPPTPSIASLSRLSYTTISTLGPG
Method: as §1, §2

[3] = 3H-CCK-8-(SO3H) 0.15 nM, 30 min at 25° C., rat pancreas homogenate, read-out: Rate Pancreas IC50 (concentration to inhibit 50% of specific 3H-CCK-8-(SO3H) binding)
[4] = 3H-CCK-8-(SO3H) 0.15 nM, 30 min at 25° C., bovine striatum homogenate, read-out: Bovine Striatum IC50 (concentration to inhibit 50% of specific 3H-CCK-8-(SO3H) binding)

Compound	IC50 [1, 3] [nM]	IC50 [2, 4] [nM]	IC50 [1] [nM]	IC50 [2] [nM]
CSCC[C@H](NC(=O)C(Cc1cccc(C(=O)O)c1)NC(C)=O)C(=O)NCC(=O)N[C@@H](Cc1c[nH]c2ccccc12)C(=O)N[C@@H](CCSC)C(=O)N[C@@H](CC(=O)O)C(=O)N[C@@H](Cc1ccccc1)C(N)=O (stereo partly drawn) [Example 42, Ac-(D,L)Phe(3-COOH)-Met-Gly-Trp-Met-Asp-Phe-NH2] (Ac-[X14]MGWMDF-NH2)	128	32		
CSCC[C@H](NC(=O)C(Cc1ccc(C(F)(F)C(=O)O)cc1)NC(C)=O)C(=O)NCC(=O)N[C@@H](Cc1c[nH]c2ccccc12)C(=O)N[C@@H](CCSC)C(=O)N[C@@H](CC(=O)O)C(=O)N[C@@H](Cc1ccccc1)C(N)=O (stereo partly drawn) [Example 52, Ac-(D,L)Phe(4-CF2 COOH)-Met-Gly-Trp-Met-Asp-Phe-NH2] (Ac-[X13]MGWMDF-NH2)			81	66
CCCC[C@H](NC(=O)[C@H](Cc1ccc(Cc2nnn[nH]2)cc1)NC(C)=O)C(=O)NCC(=O)N[C@@H](Cc1c[nH]c2ccccc12)C(=O)N[C@@H](CCCC)C(=O)N[C@@H](CC(=O)O)C(=O)N(C)[C@@H](Cc1ccccc1)C(N)=O [Example 65, Ac-Phe(4-CH2 -tetrazole) -Nle-Gly-Trp-Nle-Asp- N-methyl-Phe-NH2] (Ac-[X6][Nle]GW[Nle]D[NMeF]-NH2)	260	69		
CSCC[C@H](NC(=O)C(Cc1ccc(-c2nn[nH]n2)cc1)NC(C)=O)C(=O)NCC(=O)N[C@@H](Cc1c[nH]c2ccccc12)C(=O)N[C@@H](CCSC)C(=O)N[C@@H](CC(=O)O)C(=O)N[C@@H](Cc1ccccc1)C(N)=O (stereo partly drawn) [Example 53, Ac-(D,L)Phe(4-tetrazole)-Met-Gly-Trp-Met-Asp-Phe-NH2] (Ac-[X7]MGWMDF-NH2)	22	1.6		
CCCC[C@H](NC(=O)CCc1ccc(CC(=O)O)cc1)C(=O)NCC(=O)N[C@@H](Cc1c[nH]c2ccccc12)C(=O)N[C@@H](CCCC)C(=O)N[C@@H](CC(=O)O)C(=O)N(C)[C@@H](Cc1ccccc1)C(N)=O [Example 70, Desamino-Phe(4-CH2 COOH)-Nle-Gly-Trp-Nle-Asp-N-methyl-Phe-NH2] ({Propanoyl(3-(4-HOOCCH2-Ph))}-[Nle]GW[Nle]D[NMeF]-NH2)	330	200		
CSCC[C@H](NC(=O)C(Cc1ccc(Cc2nn[nH]n2)cc1)NC(C)=O)C(=O)NCC(=O)N[C@@H](Cc1c[nH]c2ccccc12)C(=O)N[C@@H](CCSC)C(=O)N[C@@H](CC(=O)O)C(=O)N[C@@H](Cc1ccccc1)C(N)=O (stereo partly drawn) [Example 60, Ac-(D,L)Phe(4-CH2 tetrazole)-Met-Gly-Trp-Met-Asp-Phe-NH2] (Ac-[X8]MGWMDF-NH2)	730	340		
CCOC(=O)Cc1ccc(C[C@@H](NC(C)=O)C(=O)N[C@@H](CCSC)C(=O)NCC(=O)N[C@@H](Cc2c[nH]c3ccccc23)C(=O)N[C@@H](CCSC)C(=O)N[C@@H](CC(=O)OCC)C(=O)N[C@@H](Cc2ccccc2)C(N)=O)cc1 [Example 49, Ac-(D)Phe(4-CH2 COOC2 H5)-Met-Gly-Trp-Met-Asp(COOC2H5)-Phe-NH2] (Ac-[X3]MGWMD(OEt)F-NH2)	1000	10000		
CSCC[C@H](NC(=O)[C@H](Cc1c[nH]c2ccccc12)NC(=O)CNC(=O)[C@H](CCSC)NC(=O)[C@@H](Cc1ccc(-c2nn[nH]n2)cc1)NC(C)=O)C(=O)N[C@@H](CC(=O)O)C(=O)N[C@@H](Cc1ccccc1)C(N)=O [Example 54, Ac-(D)Phe(4-tetrazole)-Met-Gly-Trp-Met-Asp-Phe-NH2] (Ac-[X15]MGWMDF-NH2)		50		

Now from value to compound, other results behind:

IC50 [1, 3] [nM]	IC50 [2, 4] [nM]	Compound	IC50 [1] [nM]	IC50 [2] [nM]
23	53	CSCC[C@H](NC(=O)C(Cc1cccc(CC(=O)O)c1)NC(C)=O)C(=O)NCC(=O)N[C@@H](Cc1c[nH]c2ccccc12)C(=O)N[C@@H](CCSC)C(=O)N[C@@H](CC(=O)O)C(=O)N[C@@H](Cc1ccccc1)C(N)=O (stereo partly drawn) [Example 58, Ac-(D,L)Phe-(3-CH2 COOH)-Met-Gly-Trp-Met-Asp-Phe-NH2] (Ac-[X12]MGWMDF-NH2)		
57		CSCC[C@H](NC(=O)CCc1ccc(CC(=O)O)cc1)C(=O)NCC(=O)N[C@@H](Cc1c[nH]c2ccccc12)C(=O)N[C@@H](CCSC)C(=O)N[C@@H](CC(=O)O)C(=O)N[C@@H](Cc1ccccc1)C(N)=O [Example 59, Desamino Phe(4-CH2 -COOH)-Met-Gly-Trp-Met-Asp-Phe-NH2] ({Propanoyl(3-(4-HOOCCH2-Ph))}-MGWMDF-NH2)		
4650	10000	CSCC[C@@H]1NC(=O)[C@H](Cc2c[nH]c3ccccc23)NC(=O)CNC(=O)[C@@H](NC(=O)C(Cc2ccc(CC(=O)O)cc2)NC(C)=O)CCCCNC(=O)C[C@@H](C(=O)N(C)[C@@H](Cc2ccccc2)C(N)=O)NC1=O (stereo partly drawn) [Example 56, Ac-(D,L)Phe(4-CH2 COOH)-Lys-Gly-Trp-Met-Asp-N-methyl-Phe-NH2] (Ac-[X1]KGWMD[NMeF]-NH2; lactam 2-6)		
62	34	CSCC[C@H](NC(=O)C(Cc1ccc(C(=O)O)cc1)NC(C)=O)C(=O)NCC(=O)N[C@@H](Cc1c[nH]c2ccccc12)C(=O)N[C@@H](CCSC)C(=O)N[C@@H](CC(=O)O)C(=O)N[C@@H](Cc1ccccc1)C(N)=O (stereo partly drawn) [Example 43, AC-(D,L)Phe(4-COOH)-Met-Gly-Trp-Met-Asp-Phe-NH2] (Ac-[ξPhe(4-COOH)]MGWMDF-NH2)		
2900	1400	CSCC[C@@H]1NC(=O)[C@H](Cc2c[nH]c3ccccc23)NC(=O)CNC(=O)[C@@H](NC(=O)CCc2ccc(-c3nn[nH]n3)cc2)CCCCNC(=O)C[C@@H](C(=O)N(C)[C@@H](Cc2ccccc2)C(N)=O)NC1=O [Example 68] (X10-KGWMD[NMeF]-NH2; lactam 1-5)		
	5.1	CSCC[C@H](NC(=O)CCc1ccc(-c2nnn[nH]2)cc1)C(=O)NCC(=O)N[C@@H](Cc1c[nH]c2ccccc12)C(=O)N[C@@H](CCSC)C(=O)N[C@@H](CC(=O)O)C(=O)N[C@@H](Cc1ccccc1)C(N)=O [Example 67, Desamino-Phe(4-tetrazole)-Met-Gly-Trp-Met-Asp-Phe-NH2] (X16-MGWMDF-NH2)		
710	160	CCCC[C@H](NC(=O)CCc1ccc(Cc2nnn[nH]2)cc1)C(=O)NCC(=O)N[C@@H](Cc1c[nH]c2ccccc12)C(=O)N[C@@H](CCCC)C(=O)N[C@@H](CC(=O)O)C(=O)N(C)[C@@H](Cc1ccccc1)C(N)=O [Example 66, Desamino-Phe(4-CH2 -tetrazole)-Nle-Gly-Trp-Nle-Asp-N-methyl-Phe-NH2] (X2-[Nle]GW[Nle]D[NMeF]-NH2)		
	0.51	CSCC[C@H](NC(=O)[C@H](Cc1ccc(-c2nnn[nH]2)cc1)NC(C)=O)C(=O)NCC(=O)N[C@@H](Cc1c[nH]c2ccccc12)C(=O)N[C@@H](CCSC)C(=O)N[C@@H](CC(=O)O)C(=O)N[C@@H](Cc1ccccc1)C(N)=O [Example 55, AcPhe(4-tetrazole)MetGlyTrpMetAspPheNH2] (Ac-[Phe(4-tetrazol-5-yl)]MGWMDF-NH2)		
